Results as given in US20070275985A1, “Triazolopyrimidines” (Bayer Cropscience Aktiengesellschaft, priority 2003, published 2007).
Where two headings read alike, the source gives them in different places.

Tests used:
[1] = logP determination by HPLC (EEC-Directive 79/831 Annex V. A8, gradient method); format: physicochemical; conditions: for logP: gradient method, acetonitrile/0.1% aqueous phosphoric acid; for chromatographic logP: value printed in preparation example text, read-out: HPLC: log P
[2] = system: Erysiphe graminis f sp. tritici; assay: Erysiphe test (wheat)/protective; format: in vivo; conditions: protective, 500 g/ha, assessment 7 days after inoculation
Excerpt: [table] One part by weight of active substance is mixed with the specified quantities of solvent and emulsifier and the concentrate diluted with water to the desired concentration to prepare a suitable active substance preparation. To test the protective efficiency, young plants are sprayed with the active substance preparation in the specified amount. After drying the spray coating, the plants are dusted with spores of Erysiphe graminis f sp. tritici. The plants are then placed in a glasshouse at a temperature of about 20° C. and a relative humidity of about 80% to promote the development of mildew pustules. The assessment is made 7 days after the inoculation. In this situation 0% means an efficiency corresponding to that of the control whereas an efficiency of 100% means that no attack is observed.

logP [1]	SMILES	further results
3.51	C=C(C)CN(CC)c1c(-c2ncc(C(F)(F)F)cc2F)c(Cl)nc2ncnn12 [Example 4]	
2.16	CC(C)C(C)Nc1c(-c2ncncc2Cl)c(Cl)nc2ncnn12 (stereo not shown) [Example 13]	
2.91	CC(Nc1c(-c2ncc(C(F)(F)F)cc2F)c(Cl)nc2ncnn12)C(F)(F)F (stereo not shown) [Example 6]	
2.53	CC(C)C(C)Nc1c(-c2ncccc2C(F)(F)F)c(Cl)nc2ncnn12 (stereo not shown) [Example 11]	
3.13	CC(C)C(C)Nc1c(-c2ncc(C(F)(F)F)cc2F)c(Cl)nc2ncnn12 (stereo not shown) [Example 7]	
	C[C@H](Nc1c(-c2ncncc2Cl)c(Cl)nc2ncnn12)C(F)(F)F [Example 2, N-[5-chloro-6-(5-chloro-4-pyrimidinyl)[1,2,4]triazolo[1,5-a]pyrimidin-7-yl]-N-[(1S)-2,2,2-trifluoro-1-methylethyl]amine]	chromatographic logP ([1]; HPLC (gradient method, EEC-Directive 79/831 Annex V. A8)): 1.98; efficiency [2]: higher than 90%
1.98	C[C@@H](Nc1c(-c2ncncc2Cl)c(Cl)nc2ncnn12)C(F)(F)F [Example 8]	
	C[C@H](Nc1c(-c2ncccc2C(F)(F)F)c(Cl)nc2ncnn12)C(F)(F)F [Example 1, N-{5-chloro-6-[3-(trifluoromethyl)-2-pyridinyl][1,2,4]triazolo[1,5-a]pyrimidin-7-yl}-N-[(1 S)-2,2,2-trifluor-1-methylethyl]amine]	chromatographic logP [1]: 2.22
2.85	CC(C)CNc1c(-c2ncc(C(F)(F)F)cc2F)c(Cl)nc2ncnn12 [Example 3]	
